For the assay, the target named is T1, V331C LacY (lactose permease), MIANS- or DACM-labelled (Escherichia coli, UniProt P02920, E325Q/K319L/V331C).
T1 sequence (P02920 1-417 K319L/E325Q/V331C): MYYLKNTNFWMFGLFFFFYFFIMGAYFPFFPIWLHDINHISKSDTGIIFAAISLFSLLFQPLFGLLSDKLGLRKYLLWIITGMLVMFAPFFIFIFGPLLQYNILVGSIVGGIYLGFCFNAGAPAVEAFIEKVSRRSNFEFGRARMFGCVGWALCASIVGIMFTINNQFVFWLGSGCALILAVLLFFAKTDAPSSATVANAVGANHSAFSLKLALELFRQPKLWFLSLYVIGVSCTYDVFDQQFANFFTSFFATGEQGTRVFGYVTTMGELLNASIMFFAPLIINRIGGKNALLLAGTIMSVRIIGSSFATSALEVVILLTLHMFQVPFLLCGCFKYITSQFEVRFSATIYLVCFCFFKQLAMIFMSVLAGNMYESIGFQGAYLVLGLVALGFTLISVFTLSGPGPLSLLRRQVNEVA
The assay is described as follows: stopped-flow Trp to NPG FRET, kobs vs NPG. Format: binding.

Data on 1 compound can be found in paper PMC2769999 (Biochemistry, 2009).

What is called Kd is the equilibrium constant for the complex coming apart. Low readings indicate tighter binding, high ones weaker binding.

`O=[N+]([O-])c1ccc(O[C@H]2O[C@H](CO)[C@H](O)[C@H](O)[C@H]2O)cc1` [NPG, 4-nitrophenyl α-D-galactopyranoside]: the equilibrium dissociation constant (Kd) was found to be 8.3 µM.
